Reference: the NIST ThermoML archive (doi:10.1016/j.jct.2012.03.015)
Numbers after ± are expanded uncertainties.

Assay: activity coefficient (dimensionless); of the first substance listed, at infinite dilution; xn = mol fraction of the nth substance listed
Settings: 101 kPa, Liquid, Chromatography, x1 = 0

Row | SMILES | activity coefficient (318.15 K) | activity coefficient (328.15 K) | activity coefficient (338.15 K) | activity coefficient (348.15 K) | activity coefficient (358.15 K) | activity coefficient (368.15 K)
1 | CCOC(C)(C)C [2-ethoxy-2-methylpropane] + COCC[N+]1(C)CCCC1.O=S(=O)([N-]S(=O)(=O)C(F)(F)F)C(F)(F)F | 6.31 ± 0.43 | 6.19 ± 0.42 | 6.12 ± 0.42 | 6.03 ± 0.41 | 5.94 ± 0.4 | 5.85 ± 0.4
2 | CCC(C)(C)OC [2-methoxy-2-methylbutane] + COCC[N+]1(C)CCCC1.O=S(=O)([N-]S(=O)(=O)C(F)(F)F)C(F)(F)F | 4.08 ± 0.28 | 4.06 ± 0.28 | 4.05 ± 0.28 | 4.03 ± 0.27 | 4.01 ± 0.27 | 4 ± 0.27
3 | COC(C)(C)C [2-methoxy-2-methylpropane] + COCC[N+]1(C)CCCC1.O=S(=O)([N-]S(=O)(=O)C(F)(F)F)C(F)(F)F | 2.76 ± 0.19 | 2.79 ± 0.19 | 2.81 ± 0.19 | 2.84 ± 0.19 | 2.86 ± 0.19 | 2.89 ± 0.2
4 | CC(C)CO [2-methyl-1-propanol] + COCC[N+]1(C)CCCC1.O=S(=O)([N-]S(=O)(=O)C(F)(F)F)C(F)(F)F | 2.76 ± 0.19 | 2.46 ± 0.17 | 2.2 ± 0.15 | 2.01 ± 0.14 | 1.84 ± 0.12 | 1.7 ± 0.11
5 | CC(C)(C)O [2-methylpropan-2-ol] + COCC[N+]1(C)CCCC1.O=S(=O)([N-]S(=O)(=O)C(F)(F)F)C(F)(F)F | 1.92 ± 0.13 | 1.79 ± 0.12 | 1.67 ± 0.11 | 1.56 ± 0.1 | 1.48 ± 0.1 | 1.4 ± 0.09
6 | CCC(C)CC [3-methylpentane] + COCC[N+]1(C)CCCC1.O=S(=O)([N-]S(=O)(=O)C(F)(F)F)C(F)(F)F | 16.6 ± 1.1 | 15.6 ± 1.1 | 14.8 ± 1 | 14.1 ± 1 | 13.5 ± 0.9 | 12.8 ± 0.9
7 | C=C(C)c1ccccc1 [(1-methylethenyl)benzene] + COCC[N+]1(C)CCCC1.O=S(=O)([N-]S(=O)(=O)C(F)(F)F)C(F)(F)F | 1.87 ± 0.13 | 1.93 ± 0.13 | 1.98 ± 0.13 | 2.03 ± 0.14 | 2.08 ± 0.14 | 2.12 ± 0.14
8 | CC(C)=O [acetone] + COCC[N+]1(C)CCCC1.O=S(=O)([N-]S(=O)(=O)C(F)(F)F)C(F)(F)F | 0.47 ± 0.04 | 0.48 ± 0.04 | 0.49 ± 0.04 | 0.5 ± 0.04 | 0.51 ± 0.04 | 0.52 ± 0.04
9 | CC#N [acetonitrile] + COCC[N+]1(C)CCCC1.O=S(=O)([N-]S(=O)(=O)C(F)(F)F)C(F)(F)F | 0.467 ± 0.036 | 0.469 ± 0.037 | 0.472 ± 0.037 | 0.474 ± 0.037 | 0.477 ± 0.037 | 0.479 ± 0.037
10 | c1ccccc1 [benzene] + COCC[N+]1(C)CCCC1.O=S(=O)([N-]S(=O)(=O)C(F)(F)F)C(F)(F)F | 1.03 ± 0.06 | 1.04 ± 0.07 | 1.06 ± 0.07 | 1.07 ± 0.07 | 1.08 ± 0.07 | 1.09 ± 0.07
11 | CCCCO [butan-1-ol] + COCC[N+]1(C)CCCC1.O=S(=O)([N-]S(=O)(=O)C(F)(F)F)C(F)(F)F | 2.87 ± 0.2 | 2.6 ± 0.2 | 2.35 ± 0.16 | 2.16 ± 0.15 | 1.98 ± 0.13 | 1.84 ± 0.12
12 | CCC(C)O (stereo not drawn) [butan-2-ol] + COCC[N+]1(C)CCCC1.O=S(=O)([N-]S(=O)(=O)C(F)(F)F)C(F)(F)F | 2.4 ± 0.2 | 2.19 ± 0.15 | 2 ± 0.14 | 1.85 ± 0.12 | 1.72 ± 0.12 | 1.61 ± 0.11
13 | CCCC=O [butanal] + COCC[N+]1(C)CCCC1.O=S(=O)([N-]S(=O)(=O)C(F)(F)F)C(F)(F)F | 0.808 ± 0.052 | 0.823 ± 0.053 | 0.838 ± 0.054 | 0.851 ± 0.055 | 0.864 ± 0.055 | 0.876 ± 0.056
